Like-named read-outs stand apart in the source and are kept apart here.
Key:
[1] = tested on: acetylcholinesterase (AchE); assay type: in vivo, Wistar male rats; details: rat
[2] = tested on: mice (Swiss strain); assay: Acute toxicity, LD50 by oral route in mice (class A derivatives); assay type: in vivo; details: mouse, suspension in 2 % carboxymethylcellulose, observation 7 days
From the text: (§1) The letal doses 50 (LD50) by oral route (suspension in 2 % carboxymethylcellulose) are reported herinbelow: TABLE 1

[3] = tested on: SWISS male mice; assay: Electroencephalographic activity (class A derivatives); assay type: in vivo; details: 6 mg/kg/os, in the course of the successive 30 minutes
[4] = Pharmacokinetics, plasma level by HPLC (MGS101); assay type: in vivo, Wistar male rats; details: rat, 6 mg/kg/os
Protocol: (§2) The presence of said substance in plasma was detected by HPLC.
(§3) With the optimized method the detection limit was of 0.15 µg per ml of plasma.

[5] = tested on: mouse; assay: Spontaneous motility, Dews method modified according to Carminati (class A derivatives); assay type: in vivo; details: mouse (Swiss)
From the text: (§4) The Dews method was used, modified according to Carminati (Arch. int. Pharmacodyn. et Thér 181, 68,1969).

[6] = tested on: rabbit; assay: Effect on the duration of the curarization by succinylcholine (class A derivatives); assay type: in vivo; details: anesthetized rabbit, 0.8 mg/kg intravenous
From the text: . […] By using the same method (male rabbits of the tawny strain of Bourgogne; […]

[7] = tested on: motor activity; assay: Antagonistic effect on the stimulating effect of scopolamine (class B derivatives); assay type: in vivo; details: scopolamine 1 mg/kg
Protocol: At the dose of 1 mg/kg, scopolamine produces an evident stimulating effect (100% increase in motor activity).
This effect is countered by the oral administration of 2.5 mg of the above mentioned compounds.

[8] = tested on: motor activity; assay: Antagonist effect on the stimulating effect of scopolamine (class C derivatives); assay type: in vivo; details: scopolamine 1 mg/kg
Protocol: This is countered by the oral administration of 2.5 mg of ES001, ES002, ES003.

[9] = tested on: motor activity; assay: Antagonistic effect on the stimulating effect of scopolamine (class F derivatives); assay type: in vivo; details: scopolamine 1 mg/kg
Protocol: At the dose of 1 mg/kg the scopolamine produce a clear stimulating effect (100 % of motor activity increase). This is countered by the oral administration of 2.5 mg of the three products MGR001, MGR002 and MGR003.

[10] = tested on: mice; assay: Toxicity, LD50 by intraperitoneal route (class B derivatives); assay type: in vivo; details: death within 24 hours of 50% of the tested animals
From the text: In the following table reported are LD50 values determined on mice for the listed compounds and compared with that of physostigmine administered by the same (intraperitoneal) route.

[11] = tested on: acetylcholinesterase; assay type: in vivo, Wistar male rats; details: rat
[12] = Acute toxicity, LD50 by oral route in mice (class D derivatives); assay type: in vivo; details: both sexes, Swiss, in vivo, mouse, suspension in 2 % carboxymethylcellulose, observation 7 days, read-out: LD50 per os
From the text: (§5) The letal doses 50 (LD50) by oral route (suspension in 2 % carboxymethylcellulose) are reported hereinbelow: TABLE 6

[13] = tested on: mouse; assay: Spontaneous motility, Dews method modified according to Carminati (class E derivatives); assay type: in vivo; details: mouse (Strain Swiss)
From the text: as §4

[14] = tested on: SWISS mice; assay: Antagonism of the central stimulating (hypermotor) effect of scopolamine (class A derivatives); assay type: in vivo; details: given 30 minutes before scopolamine 1 mg/kg s.c.
From the text: (§6) At this dose the substance provoked in all the animals a considerable increase (80-100%) of the spontaneous motility, studied according to the above mentioned method.

[15] = tested on: mouse; assay: Spontaneous motility, Dews method modified according to Carminati (class D derivatives); assay type: in vivo; details: mouse (Swiss)
From the text: as §4

[16] = Acute toxicity, LD50 by oral route in mice (class A derivatives); assay type: in vivo; details: both sexes, Swiss, in vivo, mouse, suspension in 2 % carboxymethylcellulose, observation 7 days, read-out: LD50 per os
From the text: as §1

[17] = tested on: SWISS mice; assay: Antagonism of the central stimulating (hypermotor) effect of scopolamine (class D derivatives); assay type: in vivo; details: given 30 minutes before scopolamine 1 mg/kg s.c.
From the text: as §6

[18] = tested on: SWISS mice; assay: Antagonism of the central stimulating (hypermotor) effect of scopolamine (class E derivatives); assay type: in vivo; details: given 30 minutes before scopolamine 1 mg/kg s.c.
From the text: At this dose the substance provoked a considerable increase (80-100%) of the spontaneous motility, studied according to the above mentioned method.

[19] = Acute toxicity, LD50 by oral administration in mice (class F derivatives); details: both, Swiss, mouse, in vivo, po
[20] = Acute toxicity, LD50 by oral route in mice (class E derivatives); assay type: in vivo; details: both sexes, Swiss, in vivo, mouse, suspension in 2 % carboxymethylcellulose, observation 7 days, read-out: LD50 per os
From the text: (§7) The letal doses 50 (LD50) by oral route (suspension in 2 % carboxymethylcellulose) are reported herinbelow: TABLE 9

[21] = tested on: mouse; assay: Toxicity, LD50 by intraperitoneal route (class C derivatives); assay type: in vivo
From the text: In the following table reported are the LD50 values determined on mouse for the compounds listed and compared with the corresponding LD50 value for physostigmine, administered by the same (intraperitoneal) route.

[22] = tested on: mice (Swiss strain); assay: Acute toxicity, LD50 by oral route in mice (class D derivatives); assay type: in vivo; details: mouse, suspension in 2 % carboxymethylcellulose, observation 7 days
From the text: as §5

[23] = Pharmacokinetics, plasma level by HPLC (MGF001); assay type: in vivo, Wistar male rats; details: rat, 2mg/kg/os
Protocol: as §2, §3

[24] = tested on: SWISS male mice; assay: Electroencephalographic activity (class D derivatives); assay type: in vivo; details: 3mg/kg/os, in the course of the successive 30 minutes
[25] = tested on: acetylcholinesterase (AchE); assay type: in vivo, Wistar male rats; details: rat; remark: listed apart in the source
[26] = tested on: rabbit; assay: Effect on the duration of the curarization by succinylcholine (class D derivatives); assay type: in vivo; details: anesthetized rabbit, 0.5 mg intravenous
[27] = tested on: SWISS male mice; assay: Electroencephalographic activity (class E derivatives); assay type: in vivo; details: 0.4 mg/kg/os, in the course of the successive 30 minutes
[28] = tested on: mice (Swiss strain); assay: Acute toxicity, LD50 by oral route in mice (class E derivatives); assay type: in vivo; details: mouse, suspension in 2 % carboxymethylcellulose, observation 7 days
From the text: as §7

[29] = Pharmacokinetics, plasma level by HPLC (MS001); assay type: in vivo, Wistar male rats; details: rat, 0.5 mg/kg/os
Protocol: The presence of MS001 in plasma was detected by HPLC.
With the optimized method the detection limit was of 0.20 µg per ml of plasma.

[30] = acetylcholinesterase inhibition 20 minutes after oral administration, limits in brackets

## CC[C@H](C)[C@H](NC(=O)Oc1ccc2c(c1)[C@]1(C)CCN(C)[C@@H]1N2C)C(=O)O [MGS101]
[1]; 3.5 mg/kg/OS
  INHIBITION % OF ACETYLCHOLINESTERASE (AchE) after 60 minutes brain: 38.71 ± 6.12%
  INHIBITION % OF ACETYLCHOLINESTERASE (AchE) after 60 minutes serum: 31.6 ± 4.25%
  INHIBITION % OF ACETYLCHOLINESTERASE (AchE) after 120 minutes serum: 20.12 ± 2.40%
[1]; [30]
  ED50 (mg/kg/os) brain: 2.89 (1.83 - 4.59) mg/kg/os
  ED50 (mg/kg/os) serum: 2.89 (1.82 - 4.49) mg/kg/os
[1]; oral, 1.5 to 4.5 mg/kg
  inhibitory cerebral and serumal acetylcholinesterase activity (in words): clear inhibitory dose-dependent and reversible
[2]
  LD50 per os: 332.8 ± 6.20 mg/kg
[3]
  modifications of the electroencephalogram: increase of the amplitude and a decrease of the frequency of the electroencephalogram
[4]
  concentration in plasma after 20 minutes: 15910 ± 4210 ng/mL
  concentration in plasma after 24 hours: 4310 ± 1980 ng/mL
  concentration in plasma at the twelfth hour: 14220 ± 3120 ng/mL
  maximum peak in plasma: 33.81 ± 6.15 µg/mL
  time of the maximum peak in plasma: 90 '
[5]; oral, starting from minimum doses of 4-6 mg/kg
  decrease of the spontaneous motility (on average): ~-30%
[6]
  effect on the curarization by succinylcholine compared with physostigmine: induced the same anticholinesterase effect of physostigmine

## CN1[C@@H]2C[C@@H](OC(=O)[C@H](CO)c3ccccc3)C[C@H]1[C@@H]1O[C@@H]12 [scopolamine, reference compound]
[7]
  increase in motor activity: 100%
[8]
  increase in motor activity: 100%
[9]
  motor activity increase: 100%

## CNC(=O)Oc1ccc2c(c1)[C@]1(C)CCN(C)[C@@H]1N2C [Physostigmine, physostigmine, reference compound]
[10]
  LD50 (mg/kg i.p.): 0.6 mg/kg i.p.
[11]; in vivo, 0.4 mg/kg
  INHIBITION % OF ACETYLCHOLINESTERASE (AchE) after 60 minutes brain: 22.3 ± 5.12%
  INHIBITION % OF ACETYLCHOLINESTERASE (AchE) after 60 minutes serum: 18.41 ± 4.16%
  INHIBITION % OF ACETYLCHOLINESTERASE (AchE) after 120 minutes brain: 2.41 ± 1.33%
  INHIBITION % OF ACETYLCHOLINESTERASE (AchE) after 120 minutes serum: 3.44 ± 1.21%
[11]; in vivo, po
  ED50 (mg/kg/os) brain: 0.38 (0.24 - 0.60) mg/kg/os
  ED50 (mg/kg/os) serum: 0.37 (0.23 - 0.59) mg/kg/os
[12]
  LD50 at 7 days: 4.12 ± 0.89 mg/kg
[13]
  oral dose causing a significant decrease of the spontaneous motility: 0.6 mg/kg
[14]
  dose completely undoing the hypermotor effect of scopolamine: 0.4 mg/kg/os
[15]
  oral dose causing a significant decrease of the spontaneous motility: 0.6 mg/kg
[16]
  LD50 at 7 days: 4.37 ± 1.22 mg/kg
[17]
  dose completely undoing the hypermotor effect of scopolamine: 0.4 mg/kg/os
[18]
  dose completely undoing the hypermotor effect of scopolamine: 0.4 mg/kg/os
[19]
  LD50: 4.5 mg/kg
[20]
  LD50 at 7 days: 3.78 ± 0.86 mg/kg
[21]
  LD50 (mg/kg i.p): 0.6 mg/kg i.p
[5]; minimum doses
  oral dose causing a significant decrease of the spontaneous motility: 0.6 mg/kg

## CNCCCCCCCNC(=O)Oc1ccc2c(c1)[C@]1(C)CCN(C)[C@@H]1N2C [MGF001, (3a S-cis) - 1,2,3,3a,8,8a hexahydro - 1,3a,8 - trimethyl pyrrol [2,3-b]-indol-5-ol-N-methyl-aminoheptyl carbamate ester]
[22]
  LD50 per os: 461.44 ± 51.33 mg/kg
[23]
  concentration in plasma after 20 minutes: 11480 ± 2230 ng/mL
  concentration in plasma after 120 minutes: 28410 ± 8400 ng/mL
  concentration in plasma after 12 hours: 10640 ± 5460 ng/mL
  maximum peak in plasma: 47.60 ± 9.12 µg/mL
  time of the maximum peak in plasma: 90 '
[15]
  oral dose causing a significant decrease of the spontaneous motility: 2.5 to 5 mg/kg
[24]
  modifications of the electroencephalogram: increase of the amplitude and a decrease of the frequency of the electroencephalogram
[25]; 2 mg/kg/OS
  INHIBITION % OF ACETYLCHOLINESTERASE (AchE) after 60 minutes brain: 46.38 ± 4.12%
  INHIBITION % OF ACETYLCHOLINESTERASE (AchE) after 60 minutes serum: 42.6 ± 5.28%
  INHIBITION % OF ACETYLCHOLINESTERASE (AchE) after 120 minutes brain: 25.45 ± 2.18%
  INHIBITION % OF ACETYLCHOLINESTERASE (AchE) after 120 minutes serum: 19.83 ± 4.27%
[25]; [30]
  ED50 (mg/kg/os) brain: 1.83 (1.14 - 2.94) mg/kg/os
  ED50 (mg/kg/os) serum: 1.90 (1.13 - 3.20) mg/kg/os
[25]; oral, 1-2 mg/kg
  inhibitory acetylcholinesterase activity (in words): clear inhibitory dose-dependent and reversible
[26]
  curare effect of succinylcholine compared with physostigmine: prolonged in the same way as physostigmine the curare effect of succinylcholine

## CN1CC[C@@]2(C)c3cc(OC(=O)NCCCCCCCCNC(=O)Oc4ccc5c(c4)[C@]4(C)CCN(C)[C@@H]4N5C)ccc3N(C)[C@@H]12 [MS001, (3a S-cis) - 1,2,3,3a,8,8a hexahydro - 1,3a,8 - trimethyl pyrrol [2,3-b]-indol-5-ol-1,8-octandicarbamate ester]
[11]; 0.2 mg/kg/OS
  INHIBITION % OF ACETYLCHOLINESTERASE (AchE) after 60 minutes brain: 43.41 ± 3.25%
  INHIBITION % OF ACETYLCHOLINESTERASE (AchE) after 60 minutes serum: 36.22 ± 6.20%
  INHIBITION % OF ACETYLCHOLINESTERASE (AchE) after 120 minutes brain: 19.6 ± 3.41%
  INHIBITION % OF ACETYLCHOLINESTERASE (AchE) after 120 minutes serum: 23.12 ± 5.28%
[11]; [30]
  ED50 (mg/kg/os) brain: 0.17 (0.12 - 0.23) mg/kg/os
  ED50 (mg/kg/os) serum: 0.18 (0.12 - 0.26) mg/kg/os
[13]
  oral dose causing a significant decrease of the spontaneous motility: 0.25 mg/kg
[13]; oral, 0.25 mg/kg
  decrease of the spontaneous motility (on average): ~-25%
[27]
  modifications of the electroencephalogram: increase of the amplitude and a decrease of the frequency of the electroencephalogram
[28]
  LD50 per os: 51.40 ± 5.48 mg/kg
[29]
  concentration in plasma after 15 minutes: 10640 ± 6260 ng/mL
  concentration in plasma after 120 minutes: 32120 ± 6410 ng/mL
  concentration in plasma after twelve hours: 11310 ± 3180 ng/mL
  maximum peak in plasma: 41.24 ± 8.36 µg/mL
  time of the maximum peak in plasma: 90 '

— patent EP0513703A2, “Carbamate esters of eseroline having anticholinesterase activity, a process for their preparation and relative pharmaceutical compositions containing them as the active principle” (priority 1991, dated 1992)
